Experimental findings from patent publication US10028948B2, “Chromone derivative as a dopamine D3 receptor antagonist for its use for the treatment of autism spectrum disorder” (PIERRE FABRE MEDICAMENT, priority 2013, dated 2018) are described below.

pKi: −log10 of the molar value. Structures can show the parent of a compound that is named as a salt.

Experiment [1] addresses T1, human recombinant dopamine D3 receptor (Homo sapiens, UniProt P35462).
T1 construct: expressed in transfected cells
The experiment can be described thus: Inhibition of [3H]spiperone binding, human recombinant dopamine D3 receptor. To be noted: cells expressing human recombinant D3 receptor, read-out: inhibition constant (Ki), dopamine D3 receptor. The protocol: (§1) The N-(3-{4-[4-(8-oxo-8H-[1,3]dioxolo[4,5-g]chromen-7-yl)-butyl]-piperazin-1-yl}-phenyl)-methanesulfonamide hydrochloride was evaluated in vitro as a dopamine D3 receptor ligand and modulator of the activity of that receptor in accordance with the invention in cells expressing human recombinant dopamine D3 receptor or human recombinant dopamine D2 receptor. The inhibition constant (Ki) was measured by inhibition of the binding of [^3H] spiperone as described by Cussac et al., in Naunyn-Schmiedeberg's Arch. Pharmacol. 2000, vol 361, p 569-572.

Experiment [2] deals with social interaction behavior of offspring of sodium valproate- or saline-treated female rats. The experiment can be described thus: Social interaction in the valproic acid rat model of autism. It counts as in vivo, Sprague-Dawley rats. To be noted: acute administration, scored 10 min, n=10. The procedure:
The N-(3-{4-[4-(8-oxo-8H-[1,3]dioxolo[4,5-g]chromen-7-yl)-butyl]-piperazin-1-yl}-phenyl)-methanesulfonamide hydrochloride was tested on social interaction of offspring of female rats which had been administered valproic acid as a sodium salt. The experimental settings of the valproic acid rat model of autism were adapted from published data (Dendrinos et al., Front. Integr. Neurosci. 2011, vol 5, art 68; Markram et al., Neuropsychopharm. 2007, vol 33, p 901-912; Schneider et al., Neuropsychopharm. 2005, vol 30, p 80-89).
Pregnant (embryonic day 8 max) female Sprague-Dawley rats [OFA (SD) Charles River Lyon, France] were quarantined for 4 days. Animals were group housed (2 per cage) in a full bottom cage (ML-H Cage, 370×235×180 mm, L×W×H; floor surface 870 cm^2) in an environmentally controlled room (temperature 21±1° C.; relative humidity 55±5%) under a 12-h light/dark cycle (lights on at 07:00 AM) with food (A04, Safe, Augy, France) and filtered water (0.2 μm pore diameter) freely available. Until weaning of offspring, animals were changed only once per week in order to disturb them as little as possible. Environmental enrichment (nesting material) was provided.
On embryonic days 12 and 13 (E12-E13), females were weighed and received three intraperitoneal injections of 2.4 ml/kg of sodium valproate (NaVPA, 200 mg/kg). Sodium valproate was dissolved in 0.9% saline for a concentration of 83.3 mg/ml, pH 7.3. Control dams received three intraperitoneal injections of saline (2.4 ml/kg). After the third injection, females were individually housed in ML-H type cages and allowed to raise their litters. Offspring were weaned between 21 to 23 days postnatally.
One sodium valproate- or saline-exposed rat and an unfamiliar naïve rat were placed in opposite corners of an arena (black arena 70 cm×70 cm×30 cm, L×I×H). Individual behavior related to social interaction such as following grooming, sniffing or biting the other rat as well as climbing over the other rat, initiated by the tested rat toward the unfamiliar rat were scored for a period of 10 min. […]

In experiment [3] the target is T2, human recombinant dopamine D2 receptor (Homo sapiens, UniProt P14416).
T2 construct: expressed in transfected cells
The experiment can be described thus: Inhibition of [3H]spiperone binding, human recombinant dopamine D2 receptor. As to conditions: human recombinant D2 vs D3 receptor. The protocol: as §1

T2 sequence (P14416 whole entry): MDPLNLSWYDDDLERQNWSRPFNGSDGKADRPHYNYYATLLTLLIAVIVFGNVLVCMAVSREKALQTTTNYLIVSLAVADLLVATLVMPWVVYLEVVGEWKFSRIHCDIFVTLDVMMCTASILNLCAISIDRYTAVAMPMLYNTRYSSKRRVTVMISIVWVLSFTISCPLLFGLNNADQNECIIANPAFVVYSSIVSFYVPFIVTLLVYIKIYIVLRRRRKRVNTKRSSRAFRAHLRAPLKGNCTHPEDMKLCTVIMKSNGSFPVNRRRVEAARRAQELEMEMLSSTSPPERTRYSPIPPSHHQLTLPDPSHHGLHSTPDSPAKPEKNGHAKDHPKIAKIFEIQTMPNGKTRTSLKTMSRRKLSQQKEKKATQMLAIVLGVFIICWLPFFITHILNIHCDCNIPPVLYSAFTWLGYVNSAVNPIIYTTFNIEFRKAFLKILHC
T1 sequence (P35462 whole entry): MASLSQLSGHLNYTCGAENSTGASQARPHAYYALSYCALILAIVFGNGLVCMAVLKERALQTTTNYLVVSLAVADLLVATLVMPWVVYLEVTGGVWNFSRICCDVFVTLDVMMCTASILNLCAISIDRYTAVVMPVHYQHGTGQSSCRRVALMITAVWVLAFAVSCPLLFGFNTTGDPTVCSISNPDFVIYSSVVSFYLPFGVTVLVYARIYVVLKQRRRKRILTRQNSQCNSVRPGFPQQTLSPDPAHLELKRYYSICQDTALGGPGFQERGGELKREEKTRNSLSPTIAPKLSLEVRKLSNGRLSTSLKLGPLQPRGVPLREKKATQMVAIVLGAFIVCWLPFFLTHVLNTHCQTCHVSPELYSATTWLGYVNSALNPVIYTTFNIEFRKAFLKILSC

In general, pKi refers to the negative decadic logarithm of the Ki, by convention in mol/L. Take `CS(=O)(=O)Nc1cccc(N2CCN(CCCCc3coc4cc5c(cc4c3=O)OCO5)CC2)c1` [compound according to the invention, N-(3-{4-[4-(8-oxo-8H-[1,3]dioxolo[4,5-g]chromen-7-yl)-butyl]-piperazin-1-yl}-phenyl)-methanesulfonamide hydrochloride]: the negative-log Ki (pKi) in experiment [1] is 9.77. Further, the “effect on social interaction deficits induced by prenatal exposure to sodium valproate” value in experiment [2] (0.63 mg/kg) is recorded as “significantly reduced”; in experiment [2] (2.5 mg/kg), “completely reversed”. Also, in experiment [2] (offspring of saline-treated mothers), the “effect on social interaction behavior” value is “no significant effects”. Besides, the “affinity for dopamine D2 receptor relative to D3 (times weaker)” value in experiment [3] is on record as 71 times.
